Our source for the IC50, Ratio and Ki values is ChEMBL document CHEMBL4346696, “PIM kinase inhibitors: Structural and pharmacological perspectives” (Eur J Med Chem, 2019).

One test relates to HT-29. Put plainly: Cytotoxicity against human HT-29 cells after 24 hrs by MTT assay. The note with it: HT-29, 24 h. The class given is functional, cell-based.
The target in test [1] is T1, Serine/threonine-protein kinase pim-1 (Homo sapiens, UniProt P11309). Put plainly: Inhibition of PIM1 (unknown origin).
Test [2] in a line: Cytotoxicity against human […] cells after 24 hrs by MTT assay. In kind it is functional, cell-based.
Another test deals with MCF7. Put plainly: Cytotoxicity against human MCF7 cells after 24 hrs by MTT assay. The class given is functional, cell-based. The note with it: MCF7, 24 h.
For test [3], the species on record is Homo sapiens. Put plainly: Selectivity ratio of IC50 for PI3kdelta (unknown origin) to Ki for PIM1 (unknown origin).
The species entered for test [4] is Homo sapiens. Put plainly: Selectivity ratio of IC50 for PI3kalpha (unknown origin) to Ki for PIM1 (unknown origin).
Test [5] is filed under the species Homo sapiens. Put plainly: Selectivity ratio of IC50 for PI3kgamma (unknown origin) to Ki for PIM1 (unknown origin).
The target in test [6] is T1, Serine/threonine-protein kinase pim-1. Put plainly: Inhibition of N-terminal GST-tagged recombinant human full length Pim-1 expressed in Escherichia coli cells.

Bounds are passed on as bounds.

T1 sequence (P11309 whole entry): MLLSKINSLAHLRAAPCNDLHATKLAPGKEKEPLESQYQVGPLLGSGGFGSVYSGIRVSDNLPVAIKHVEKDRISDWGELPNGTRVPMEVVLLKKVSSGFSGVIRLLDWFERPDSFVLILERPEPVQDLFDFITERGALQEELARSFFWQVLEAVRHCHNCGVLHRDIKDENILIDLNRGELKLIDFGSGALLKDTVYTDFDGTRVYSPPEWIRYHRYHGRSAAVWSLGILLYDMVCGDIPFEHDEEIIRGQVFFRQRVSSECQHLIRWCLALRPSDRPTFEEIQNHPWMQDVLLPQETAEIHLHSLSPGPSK

As for `CSc1ncc(-c2cc(-c3ccc4c(c3)OCO4)[nH]c(=O)c2C#N)n1Cc1ccccc1`, the IC50 (usually the concentration needed to halve the response being measured) in the test with HT-29 was > 130000 nM.
Regarding `CSc1ncc(-c2cc(-c3ccc(Br)cc3)[nH]c(=N)c2C#N)n1Cc1ccccc1`, the figures for the IC50 (in test [1]; with HT-29) were < 150 nM and > 130000 nM, respectively.
As to `Cc1nc2sc3c(c2c(C)c1Br)NC(c1ccc(O)c(O)c1)NC3=O` (centres undefined), the IC50 (in test [2]; with MCF7) was 60 to 1760 nM each time.
With `COc1cc(C2NC(=O)c3sc4nc(C)c(Br)c(C)c4c3N2)ccc1O` (centres undefined), the IC50 (in test [2]; with MCF7) was 60 to 1760 nM in each case.
As to `CSc1ncc(-c2cc(-c3ccc(Br)cc3)[nH]c(=O)c2C#N)n1Cc1ccccc1`, the IC50 was < 150 nM in test [1] and > 130000 nM in the test with HT-29.
As for `CC(C)(O)[C@H]1CC[C@H](Nc2ccc3ncc(-c4cccc(C(F)(F)F)c4)n3n2)CC1`, the Ratio in the test listed under Homo sapiens [3], in the test listed under Homo sapiens [4] and in the test listed under Homo sapiens [5] was 10 each time.
Take `O=C1NC(=O)/C(=C/c2ccnc(N3CCC(CNCc4ccc5ccccc5n4)CC3)n2)S1`: in test [6], the Ki – broadly, a dissociation constant, usually derived from enzyme kinetics or from competition with a known ligand – amounted to 7.7 nM.
`CSc1ncc(-c2cc(-c3ccc4c(c3)OCO4)[nH]c(=N)c2C#N)n1Cc1ccccc1`: the IC50 in the test on HT-29 is > 130000 nM.
